Data as given in US8906925B2, “Pyrido[4,3-B]indoles containing rigid moieties” (Medivation Technologies, Inc., priority 2008, dated 2014).

What was measured:
histamine receptor H1 [1] = biological target: T1, histamine receptor H1 (Homo sapiens, UniProt P35367); experiment: Inhibition of binding of a ligand (Pyrilamine) to histamine receptor H1; conditions: as compared to the unsubstituted vinyl counterpart (106 vs compound 415; 85 vs compound 95)
Procedure: The number and extent of undesirable side effects increases with increasing affinity for the H1 receptor Thus, in one aspect, compounds of the formulae herein display reduced, low or no affinity to histamine receptor H1. […] Inhibition of binding of a ligand to H1 for all variations detailed herein is determined by a suitable assay known in the art such as the assay described herein. […] In one variation, compounds of the formulae herein inhibit binding of a ligand to H1 by between about 50% to about 80%. […] In one variation, compounds of the formulae herein inhibit binding of Pyrilamine to H1 as determined in the assay described herein. In a further variation, percent inhibition of binding to H1 is measured by assays detailed herein.
The binding properties of compounds disclosed herein to a panel of aminergic G protein-coupled receptors including adrenergic receptors, dopamine receptors, serotonin receptors, histamine receptors and an imidazoline receptor may be determined. Binding properties may be assessed by methods known in the art, such as competitive binding assays. In one variation, compounds are assessed by the binding assays detailed herein. […]
In one aspect, DDT compounds display low affinity to histamine receptor H1. […] Inhibition of binding of a ligand to H1 for all variations detailed herein is determined by a suitable assay known in the art such as the assay described herein. […]

histamine receptor H1 [2] = biological target: T1, histamine receptor H1; experiment: Histamine H1 radioligand binding ([3H]Pyrilamine)
How it was run: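 Values are percent inhibition of specific [3H]pyrilamine (1.2 nM) binding with compounds at ≤1 μM (1% DMSO vehicle); 180 min incubation at 25 °C, pH 7.4 Tris buffer, on CHO-expressed human H1 receptor; 1 μM pyrilamine defined nonspecific binding, bound ligand counted after filtration.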

[3] = biological target: human dopamine D2L receptor (Homo sapiens, UniProt P14416); experiment: Dopamine D2L radioligand binding ([3H]Spiperone); conditions: percent inhibition of specific binding, compound at 1 μM
Sequence of human dopamine D2L receptor (P14416 whole entry): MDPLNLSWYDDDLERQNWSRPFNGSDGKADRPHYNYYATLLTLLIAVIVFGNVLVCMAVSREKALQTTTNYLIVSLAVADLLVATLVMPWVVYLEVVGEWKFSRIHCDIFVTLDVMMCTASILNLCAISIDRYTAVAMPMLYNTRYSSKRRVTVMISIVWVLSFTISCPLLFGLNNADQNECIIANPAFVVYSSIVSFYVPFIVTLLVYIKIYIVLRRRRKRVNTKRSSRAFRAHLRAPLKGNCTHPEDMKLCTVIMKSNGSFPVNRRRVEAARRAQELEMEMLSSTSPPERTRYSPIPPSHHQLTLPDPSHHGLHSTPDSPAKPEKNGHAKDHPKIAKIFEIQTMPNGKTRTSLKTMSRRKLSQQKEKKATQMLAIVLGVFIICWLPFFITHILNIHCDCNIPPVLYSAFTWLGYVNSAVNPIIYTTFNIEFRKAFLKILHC
Excerpt: Non-specific binding was estimated in the presence of […] Haloperidol. Receptor proteins were filtered and washed, the filters were then counted to determine [^3H]Spiperone specifically bound. […] Biochemical assay results are presented as the percent inhibition of specific binding in Table 9.

[4] = biological target: T2, human recombinant serotonin (5-Hydroxytryptamine) 5-HT2A receptor (Homo sapiens, UniProt P28223); experiment: Serotonin 5-HT2A radioligand binding ([3H]Ketanserin)
T2 construct: expressed in transfected cells; host or cells: Chinese hamster ovary (CHO-K1) cells
T2 sequence (P28223 whole entry): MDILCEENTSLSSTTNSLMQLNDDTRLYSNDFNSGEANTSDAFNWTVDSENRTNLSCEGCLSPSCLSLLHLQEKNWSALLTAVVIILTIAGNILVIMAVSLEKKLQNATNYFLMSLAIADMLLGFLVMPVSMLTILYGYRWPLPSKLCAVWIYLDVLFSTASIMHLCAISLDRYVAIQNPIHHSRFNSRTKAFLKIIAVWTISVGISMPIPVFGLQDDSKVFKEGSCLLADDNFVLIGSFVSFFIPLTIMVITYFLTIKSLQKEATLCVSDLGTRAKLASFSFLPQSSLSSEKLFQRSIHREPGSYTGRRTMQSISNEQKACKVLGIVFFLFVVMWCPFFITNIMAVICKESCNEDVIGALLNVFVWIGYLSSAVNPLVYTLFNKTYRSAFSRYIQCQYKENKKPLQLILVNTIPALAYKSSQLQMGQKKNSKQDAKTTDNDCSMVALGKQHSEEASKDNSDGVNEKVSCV
Procedure: Compounds of the invention were incubated with 0.5 nM [^3H]Ketanserin for 60 min. at 25° C. Non-specific binding was estimated in the presence of 1 μM Mianserin. Receptor proteins were filtered and washed, the filters were then counted to determine [^3H]Ketanserin specifically bound.

[5] = biological target: T3, human recombinant serotonin (5-Hydroxytryptamine) 5-HT2C receptor (Homo sapiens, UniProt P28335); experiment: Serotonin 5-HT2C radioligand binding ([3H]Mesulergine); conditions: compound at 0.1 μM; read-out: Inhibition of ligand binding, Serotonin 5-HT2C (percent inhibition of specific binding)
T3 construct: expressed in transfected cells; host or cells: Chinese hamster ovary (CHO-K1) cells
T3 sequence (P28335 33-458): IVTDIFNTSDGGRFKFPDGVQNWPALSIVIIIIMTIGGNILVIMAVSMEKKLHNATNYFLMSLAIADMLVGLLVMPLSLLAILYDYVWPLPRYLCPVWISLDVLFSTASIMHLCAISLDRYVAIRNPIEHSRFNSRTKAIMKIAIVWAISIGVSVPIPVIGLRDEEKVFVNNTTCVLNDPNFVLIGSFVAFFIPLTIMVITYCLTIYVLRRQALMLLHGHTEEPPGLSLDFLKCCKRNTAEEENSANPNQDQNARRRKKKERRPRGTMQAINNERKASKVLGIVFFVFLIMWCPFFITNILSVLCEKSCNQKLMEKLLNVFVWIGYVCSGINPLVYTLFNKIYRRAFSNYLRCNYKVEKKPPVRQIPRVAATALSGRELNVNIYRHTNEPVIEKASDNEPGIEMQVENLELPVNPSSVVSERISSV
How it was run: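 Compounds tested at 1 μM or lower (1% DMSO vehicle) for displacement of 1 nM [3H]Mesulergine over 60 min at 25° C. Specific binding determined by filtration counting, with 1 μM Mianserin defining non-specific binding; values are percent inhibition.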

[6] = biological target: T4, human recombinant serotonin (5-Hydroxytryptamine) 5-HT6 receptor (Homo sapiens, UniProt P50406); experiment: Serotonin 5-HT6 radioligand binding ([3H]LSD)
T4 construct: expressed in transfected cells; host or cells: human HeLa cells
T4 sequence (P50406 whole entry): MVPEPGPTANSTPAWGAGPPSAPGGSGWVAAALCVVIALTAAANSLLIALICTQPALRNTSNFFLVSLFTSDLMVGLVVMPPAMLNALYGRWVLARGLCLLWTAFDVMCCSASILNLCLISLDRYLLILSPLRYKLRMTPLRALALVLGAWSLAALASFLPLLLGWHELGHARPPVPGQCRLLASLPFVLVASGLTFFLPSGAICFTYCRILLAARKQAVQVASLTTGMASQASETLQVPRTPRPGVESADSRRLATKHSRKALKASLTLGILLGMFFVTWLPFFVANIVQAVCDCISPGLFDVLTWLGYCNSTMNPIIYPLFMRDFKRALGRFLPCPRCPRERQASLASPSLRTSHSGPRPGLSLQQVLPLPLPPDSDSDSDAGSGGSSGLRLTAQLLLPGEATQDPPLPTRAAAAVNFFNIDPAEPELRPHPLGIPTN
Procedure: Compounds of the invention were incubated with 1.5 nM [3H]Lysergic acid diethylamide (LSD) for 120 min. at 37° C. […] Receptor proteins were filtered and washed, the filters were then counted to determine [3H]LSD specifically bound. Compounds were screened at 1 μM or lower, using 1% DMSO as vehicle. Biochemical assay results are presented as the percent inhibition of specific binding in Table 10.

T1 sequence (P35367 whole entry): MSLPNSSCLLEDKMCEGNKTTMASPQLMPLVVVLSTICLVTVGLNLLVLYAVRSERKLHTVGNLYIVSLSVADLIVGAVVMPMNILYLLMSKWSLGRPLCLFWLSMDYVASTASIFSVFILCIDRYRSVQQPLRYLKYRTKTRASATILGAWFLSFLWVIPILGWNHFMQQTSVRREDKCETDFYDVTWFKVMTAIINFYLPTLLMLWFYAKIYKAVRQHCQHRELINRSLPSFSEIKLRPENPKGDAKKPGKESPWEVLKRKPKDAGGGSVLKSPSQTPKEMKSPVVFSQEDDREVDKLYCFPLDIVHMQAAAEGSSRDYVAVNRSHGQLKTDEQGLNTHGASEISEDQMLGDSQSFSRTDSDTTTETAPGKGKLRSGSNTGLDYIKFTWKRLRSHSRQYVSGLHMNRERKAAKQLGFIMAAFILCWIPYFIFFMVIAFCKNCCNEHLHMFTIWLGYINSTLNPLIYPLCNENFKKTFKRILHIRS

With `C/C(=C\n1c2c(c3cc(C)ccc31)CN(C)CC2)c1ccc(C)nc1` [compound 85, (E)-2,3,4,5-tetrahydro-2,8-dimethyl-5-(2-(6-methylpyridin-3-yl)prop-1-enyl)-1H-pyrido[4,3-b]indole] the “binding affinity to H1” value (histamine receptor H1 [1]) was “lower binding affinity to H1”, the “Histamine Binding (1 μM) H1, percent inhibition of specific binding” value (histamine receptor H1 [2]; 1 μM) was 13% and the inhibition at 1 µM (histamine receptor H1 [2]; read-out: Histamine Binding (1 μM) H1, percent inhibition of specific binding, 1 μM) was 9%. For the same molecule, the “Inhibition of ligand binding, Dopamine D2L” value ([3]; 1 µM) was 57%, the inhibition at 1 µM ([3]; read-out: Inhibition of ligand binding, Dopamine D2L) was 43% and the “Inhibition of ligand binding, Serotonin 5-HT2A (percent inhibition of specific binding)” value ([4]; compound at 0.1 μM, 0.1 µM) was 98%. For the same molecule, the inhibition at 0.1 µM ([4]; read-out: Inhibition of ligand binding, Serotonin 5-HT2A (percent inhibition of specific binding), compound at 0.1 μM) was 88%, the inhibition at 0.1 µM [5] was 92% and the “Inhibition of ligand binding, Serotonin 5-HT6 (percent inhibition of specific binding)” value ([6]; compound at 0.1 μM, 0.1 µM) was 19%. It also gave an inhibition at 0.1 µM ([6]; compound at 0.1 μM, read-out: Inhibition of ligand binding, Serotonin 5-HT6 (percent inhibition of specific binding)) of 22% and an inhibition at 1 µM ([6]; compound at 1 μM, read-out: Inhibition of ligand binding, Serotonin 5-HT6 (percent inhibition of specific binding)) of 68%.
